Results reported in US8609653B2, “Azaindole compounds and methods for treating HIV” (priority 2011, dated 2013).
Where a name gives a salt, the structure may show the parent alone.

tested on: HIV; test: MT4 assay: antiviral HIV activity in MT-4 cells; format: cell-based; conditions: Human immunodeficiency virus 1, MT4, 96 h, read-out: HIV MT4 Assay IC50 (μM), HTLV-1 transformed cell line MT-4; read-out 96 hours later with cell titer glo; 10 point dose response
Method: Antiviral HIV activity and cytotoxicity values for compounds of the invention from Table 1 were measured in parallel in the HTLV-1 transformed cell line MT-4 based on the method previously described (Hazen et al., 2007, In vitro antiviral activity of the novel, tyrosyl-based human immunodeficiency virus (HIV) type 1 protease inhibitor brecanavir (GW640385) in combination with other antiretrovirals and against a panel of protease inhibitor-resistant HIV (Hazen et al., “In vitro antiviral activity of the novel, tyrosyl-based human immunodeficiency virus (HIV) type 1 protease inhibitor brecanavir (GW640385) in combination with other antiretrovirals and against a panel of protease inhibitor-resistant HIV”, Antimicrob. Agents Chemother. 2007, 51: 3147-3154; and Pauwels et al., “Sensitive and rapid assay on MT-4 cells for the detection of antiviral compounds against the AIDS virus”, J. of Virological Methods 1987, 16: 171-185).
Luciferase activity was measured 96 hours later by adding a cell titer glo (Promega, Madison, Wis.). Percent inhibition of cell protection data was plotted relative to no compound control. Under the same condition, cytotoxicity of the compounds was determined using cell titer Glo™ (Promega, Madison, Wis.). IC50s were determined from a 10 point dose response curve using 3-4-fold serial dilution for each compound, which spans a concentration range>1000 fold.
These values are plotted against the molar compound concentrations using the standard four parameter logistic equation: y=((Vmax*x^n)/(K^n+x^n))+Y2
Y2=minimum y n=slope factor
Vmax=maximum y x=compound concentration [M]

Row | Structure (SMILES) | IC50 [µM]
1 | COc1cccc(F)c1Cn1ccc2c(-c3ccc4c(c3)CCCO4)c(C(OC(C)(C)C)C(=O)O)c(C)nc21 (stereo not drawn) [Example 55, 2-(tert-butoxy)-2-(4-(chroman-6-yl)-1-(2-fluoro-6-methoxybenzyl)-6-methyl-1H-pyrrolo[2,3-b]pyridin-5-yl)acetic acid] | 0.021
2 | Cc1nc2c(ccn2Cc2ccc(F)c(F)c2)c(-c2ccc3c(c2)CCO3)c1[C@H](OC(C)(C)C)C(=O)O [Example 112, (S)-2-(tert-butoxy)-2-(1-(3,4-difluorobenzyl)-4-(2,3-dihydrobenzofuran-5-yl)-6-methyl-1H-pyrrolo[2,3-b]pyridin-5-yl)acetic acid] | 0.011
3 | Cc1nc2c(ccn2Cc2ccc(F)c(F)c2)c(-c2ccc3ncsc3c2)c1[C@H](OC(C)(C)C)C(=O)O [Example 117, (S)-2-(4-(Benzo[d]thiazol-6-yl)-1-(3,4-difluorobenzyl)-6-methyl-1H-pyrrolo[2,3-b]pyridin-5-yl)-2-(tert-butoxy)acetic acid, Trifluoroacetic acid salt] | 0.036
4 | Cc1nc2c(ccn2[C@@H](C)c2ccc(F)cc2)c(-c2ccc3c(c2)CCCO3)c1[C@@H](OC(C)(C)C)C(=O)O [Example 84, (R)-2-(tert-butoxy)-2-(4-(chroman-6-yl)-1-((S)-1-(4-fluorophenyl)ethyl)-6-methyl-1H-pyrrolo[2,3-b]pyridin-5-yl)acetic acid] | 0.124
5 | Cc1ccc(-c2c([C@@H](OC(C)(C)C)C(=O)O)c(C)nc3c2ccn3Cc2ccc(F)c(F)c2)cc1 [Example 17, (R)-2-(tert-butoxy)-2-(1-(3,4-difluorobenzyl)-6-methyl-4-(p-tolyl)-1H-pyrrolo[2,3-b]pyridin-5-yl)acetic acid] | 10
6 | Cc1ccc(-c2c(C(OC(C)(C)C)C(=O)O)c(C)nc3c2ccn3Cc2cc(Cl)ccc2F)cc1 (stereo not drawn) [Example 20, 2-(tert-butoxy)-2-(1-(5-chloro-2-fluorobenzyl)-6-methyl-4-(p-tolyl)-1H-pyrrolo[2,3-b]pyridin-5-yl)acetic acid] | 0.23
7 | Cc1nc2c(ccn2Cc2ccc(OC(F)(F)F)cc2)c(-c2ccc3c(c2)CCCO3)c1C(OC(C)(C)C)C(=O)O (stereo not drawn) [Example 64, 2-(tert-butoxy)-2-(4-(chroman-6-yl)-6-methyl-1-(4-(trifluoromethoxy)benzyl)-1H-pyrrolo[2,3-b]pyridin-5-yl)acetic acid] | 0.68
8 | Cc1nc2c(ccn2Cc2ccc(F)c(F)c2)c(-c2ccc3c(c2)C(C)(C)CO3)c1[C@H](OC(C)(C)C)C(=O)O [Example 123, (S)-2-(tert-butoxy)-2-(1-(3,4-difluorobenzyl)-4-(3,3-dimethyl-2,3-dihydrobenzofuran-5-yl)-6-methyl-1H-pyrrolo[2,3-b]pyridin-5-yl)acetic acid] | 2.86
9 | Cc1nc2c(ccn2Cc2ccc(F)c(F)c2)c(-c2cc(F)c3c(c2C)CCCO3)c1[C@H](OC(C)(C)C)C(=O)O (atropisomer, axis not shown; (M)) [Example 96, (2S)(M)-2-(tert-butoxy)-2-(1-(3,4-difluorobenzyl)-4-(8-fluoro-5-methylchroman-6-yl)-6-methyl-1H-pyrrolo[2,3-b]pyridin-5-yl)acetic acid] | 0.006
10 | Cc1nc2c(c(-c3ccc4c(c3C)CCCO4)c1C(OC(C)(C)C)C(=O)O)c1ccccc1n2C (stereo not drawn) [Example 127, 2-(tert-butoxy)-2-(2,9-dimethyl-4-(5-methylchroman-6-yl)-9H-pyrido[2,3-b]indol-3-yl)acetic acid] | 0.05
11 | Cc1ccc(-c2c(C(OC(C)(C)C)C(=O)O)c(C)nc3c2ccn3Cc2ccc(F)c(F)c2)cc1 (stereo not drawn) [Example 5, 2-(tert-butoxy)-2-(1-(3,4-difluorobenzyl)-6-methyl-4-(p-tolyl)-1H-pyrrolo[2,3-b]pyridin-5-yl)acetic acid] | 0.2
12 | Cc1nc2c(ccn2Cc2c(F)cccc2Cl)c(-c2ccc3c(c2)CCCO3)c1C(OC(C)(C)C)C(=O)O (stereo not drawn) [Example 56, 2-(tert-butoxy)-2-(1-(2-chloro-6-fluorobenzyl)-4-(chroman-6-yl)-6-methyl-1H-pyrrolo[2,3-b]pyridin-5-yl)acetic acid] | 0.025
13 | Cc1ccc(-c2c(C(OC(C)(C)C)C(=O)O)c(C)nc3c2ccn3Cc2ccc(F)cc2Cl)cc1 (stereo not drawn) [Example 13, 2-(tert-butoxy)-2-(1-(2-chloro-4-fluorobenzyl)-6-methyl-4-(p-tolyl)-1H-pyrrolo[2,3-b]pyridin-5-yl)acetic acid] | 0.43
14 | Cc1nc2c(ccn2Cc2ccc(F)c(F)c2)c(-c2cc(Cl)c3c(c2C)CCCO3)c1[C@H](OC(C)(C)C)C(=O)O (atropisomer, axis not shown; (M)) [Example 95, (2S)(M)-2-(tert-butoxy)-2-(4-(8-chloro-5-methylchroman-6-yl)-1-(3,4-difluorobenzyl)-6-methyl-1H-pyrrolo[2,3-b]pyridin-5-yl)acetic acid] | 0.04
15 | Cc1nc2c(ccn2Cc2ccc(F)c(F)c2)c(-c2ccc3c4c(ccnc24)CCO3)c1[C@H](OC(C)(C)C)C(=O)O (atropisomer, axis not shown; (M)) [Example 124, (S)-2-(tert-butoxy)-2-(1-(3,4-difluorobenzyl)-4-((M)-2,3-dihydropyrano[4,3,2-de]quinolin-7-yl)-6-methyl-1H-pyrrolo[2,3-b]pyridin-5-yl)acetic acid] | 0.035
16 | Cc1ccc(-c2c([C@H](OC(C)(C)C)C(=O)O)c(C)nc3c2ccn3Cc2cc(F)ccc2F)cc1 [Example 7, (S)-2-(tert-butoxy)-2-(1-(2,5-difluorobenzyl)-6-methyl-4-(p-tolyl)-1H-pyrrolo[2,3-b]pyridin-5-yl)acetic acid] | 0.106
17 | Cc1ccc(-c2c(C(OC(C)(C)C)C(=O)O)c(C)nc3c2ccn3Cc2ccc(C)c(F)c2)cc1 (stereo not drawn) [Example 12, 2-(tert-butoxy)-2-(1-(3-fluoro-4-methylbenzyl)-6-methyl-4-(p-tolyl)-1H-pyrrolo[2,3-b]pyridin-5-yl)acetic acid] | 2.1
18 | Cc1nc2c(ccn2Cc2ccc(F)c(F)c2)c(-c2ccc3c(c2)CCCO3)c1[C@@H](OC(C)(C)C)C(=O)O [Example 28, (R)-2-(tert-butoxy)-2-(4-(chroman-6-yl)-1-(3,4-difluorobenzyl)-6-methyl-1H-pyrrolo[2,3-b]pyridin-5-yl)acetic acid] | 6.56
19 | COc1ccc(Cn2ccc3c(-c4ccc5c(c4)CCCO5)c(C(OC(C)(C)C)C(=O)O)c(C)nc32)cc1C(F)(F)F (stereo not drawn) [Example 52, 2-(tert-butoxy)-2-(4-(chroman-6-yl)-1-(4-methoxy-3-(trifluoromethyl)benzyl)-6-methyl-1H-pyrrolo[2,3-b]pyridin-5-yl)acetic acid] | 0.37
20 | Cc1ccc(-c2c(C(OC(C)(C)C)C(=O)O)c(C)nc3c2ccn3Cc2ccc(Cl)c(F)c2)cc1 (stereo not drawn) [Example 16, 2-(tert-butoxy)-2-(1-(4-chloro-3-fluorobenzyl)-6-methyl-4-(p-tolyl)-1H-pyrrolo[2,3-b]pyridin-5-yl)acetic acid] | 0.36

same assay, conditions: read-out: HIV MT4 Assay IC50; HTLV-1 transformed cell line MT-4; read-out 96 hours later with cell titer glo; 10 point dose response; Trifluoroacetic acid salt

Row | Structure (SMILES) | IC50 [µM]
21 | Cc1nc2c(c3c(n2C)CCCC3)c(-c2ccc3c(c2C)NCCO3)c1[C@H](OC(C)(C)C)C(=O)O (atropisomer, axis not shown; (M)) [Example 130, (2S)(M)-2-(tert-butoxy)-2-(2,9-dimethyl-4-(5-methyl-3,4-dihydro-2H-benzo[b][1,4]oxazin-6-yl)-6,7,8,9-tetrahydro-5H-pyrido[2,3-b]indol-3-yl)acetic acid, Trifluoroacetic acid salt] | 0.01
